According to ChEMBL document CHEMBL4706619, “Synthesis and identification of a novel derivative of salidroside as a selective, competitive inhibitor of monoamine oxidase B with enhanced neuroprotective properties” (Eur J Med Chem, 2021):
The source made the active and inactive calls. No cut-off for these calls is given here.

Key:
[1] = tested on: PC-12; test: Neuroprotective activity against CoCl2-induced cytotoxicity in rat PC12 cells assessed as increase in cell viability at 1 uM pretreated with CoCl2 for 8 hrs followed by incubation with drug and measured after 24 hrs by MTT assay; format: functional, cell-based
[2] = n-Octanol/saturated water patition coefficient, logP of the compound at 0.05 mg/ml incubated for 24 hrs by HPLC analysis; format: physicochemical
[3] = tested on: Rattus norvegicus; test: Ex vivo inhibition of MAO activity in infarcted cerebral hemisphere of middle cerebral artery occlusion-induced ischemia-reperfusion injury Sprague-Dawley rat model assessed as inhibition of 4-hydroxyquinoline formation using kynuramine as substrate at 25 mg/kg/day, ip for 2 days by fluorescence spectrophotometry; format: functional, organism-based; settings: time 2.0 day
[4] = molecular target: T1, Amine oxidase [flavin-containing] B (Homo sapiens, UniProt P27338); test: Competitive inhibition of human recombinant MAO-B expressed in baculovirus infected BTI cells assessed as inhibition of 4-hydroxyquinoline formation using varying concentration of kynuramine as substrate preincubated with enzyme for 10 mins followed by addition of substrate and measured after 15 mins by Lineweaver-Burk plot analysis
T1 sequence (P27338 whole entry): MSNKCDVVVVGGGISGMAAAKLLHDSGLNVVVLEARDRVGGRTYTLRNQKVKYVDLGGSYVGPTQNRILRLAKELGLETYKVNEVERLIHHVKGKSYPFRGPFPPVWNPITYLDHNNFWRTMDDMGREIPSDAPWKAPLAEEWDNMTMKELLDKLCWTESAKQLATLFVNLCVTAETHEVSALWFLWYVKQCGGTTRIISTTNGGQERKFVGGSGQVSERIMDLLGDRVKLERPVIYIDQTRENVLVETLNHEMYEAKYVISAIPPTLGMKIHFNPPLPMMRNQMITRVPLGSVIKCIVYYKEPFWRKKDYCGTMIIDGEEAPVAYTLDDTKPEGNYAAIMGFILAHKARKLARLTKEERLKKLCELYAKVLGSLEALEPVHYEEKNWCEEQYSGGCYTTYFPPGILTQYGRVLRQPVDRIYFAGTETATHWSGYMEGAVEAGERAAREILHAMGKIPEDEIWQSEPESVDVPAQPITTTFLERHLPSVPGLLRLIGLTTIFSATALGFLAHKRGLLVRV

[5] = tested on: Rattus norvegicus; test: Neuroprotective activity against middle cerebral artery occlusion-induced ischemia-reperfusion injury Sprague-Dawley rat model assessed as decrease in neurological deficit score administered ip for 2 days; format: functional, organism-based; settings: dose 12.5-50 mg/kg/day, time 2.0 day
[6] = molecular target: T1, Amine oxidase [flavin-containing] B; test: (§1) Inhibition of human recombinant MAO-B expressed in baculovirus infected BTI cells assessed as inhibition of 4-hydroxyquinoline formation using kynuramine as substrate preincubated with enzyme for 10 mins followed by addition of substrate and measured after 15 mins by fluorescence spectrophotometry
[7] = tested on: PC-12; test: Neuroprotective activity against CoCl2-induced cytotoxicity in rat PC12 cells assessed as increase in cell viability pretreated with CoCl2 for 8 hrs followed by incubation with drug and measured after 24 hrs by MTT assay; format: functional, cell-based
[8] = molecular target: T1, Amine oxidase [flavin-containing] B; test: as §1, with “spectrophotometry relative to control” for “spectrophotometry”; settings: 0.25 h, time 25 min, read-out: Imax
[9] = tested on: Rattus norvegicus; test: Inhibition of mitochondrial pathway of apoptosis in damaged cerebral hemisphere of middle cerebral artery occlusion-induced ischemia-reperfusion injury Sprague-Dawley rat model assessed as decrease in complement C3 protein expression at 25 mg/kg/day, ip administered for 2 days by western blot analysis; format: functional, organism-based; settings: time 2.0 day
[10] = tested on: Rattus norvegicus; test: Neuroprotective activity against middle cerebral artery occlusion-induced ischemia-reperfusion injury Sprague-Dawley rat model assessed as decrease in cerebral infarct volume at 12.5 to 50 mg/kg/day, ip administered for 2 days by magnetic resonance imaging analysis; format: functional, organism-based; settings: dose 12.5-50 mg/kg/day, time 2.0 day
[11] = tested on: PC-12; test: Neuroprotective activity against CoCl2-induced cytotoxicity in rat PC12 cells assessed as increase in cell viability pretreated with CoCl2 for 8 hrs followed by incubation with drug and measured after 24 hrs by MTT assay relative to control; format: functional
[12] = tested on: Rattus norvegicus; test: Inhibition of mitochondrial pathway of apoptosis in damaged cerebral hemisphere of middle cerebral artery occlusion-induced ischemia-reperfusion injury Sprague-Dawley rat model assessed as increase in ratio of Bcl-2 to Bax at 25 mg/kg/day, ip administered for 2 days by western blot analysis; format: functional, organism-based; settings: time 2.0 day
[13] = tested on: Rattus norvegicus; test: Inhibition of mitochondrial pathway of apoptosis in damaged cerebral hemisphere of middle cerebral artery occlusion-induced ischemia-reperfusion injury Sprague-Dawley rat model assessed as increase in NeuN protein expression at 25 mg/kg/day, ip administered for 2 days by western blot analysis; format: functional, organism-based; settings: time 2.0 day

| Structure (SMILES) | Activity [1] | further results |
| --- | --- | --- |
| CCCCCCC(=O)Oc1ccc(CCO[C@@H]2O[C@H](CO)[C@@H](O)[C@H](O)[C@H]2O)cc1 | Active | – |
| O=C(Oc1ccc(CCO[C@@H]2O[C@H](CO)[C@@H](O)[C@H](O)[C@H]2O)cc1)c1cccc(Cl)c1Cl | inactive | – |
| O=S(=O)(Oc1ccc(CCO[C@@H]2O[C@H](CO)[C@@H](O)[C@H](O)[C@H]2O)cc1)c1ccccc1 | inactive | – |
| OCCc1ccc(O)cc1 | inactive | – |
| Cc1cccc(C(=O)Oc2ccc(CCO[C@@H]3O[C@H](CO)[C@@H](O)[C@H](O)[C@H]3O)cc2)c1 | Active | – |
| OC[C@H]1O[C@@H](O)[C@H](O)[C@@H](O)[C@@H]1O | inactive | – |
| Cc1ccc(C(=O)Oc2ccc(CCO[C@@H]3O[C@H](CO)[C@@H](O)[C@H](O)[C@H]3O)cc2)cc1 | Active | – |
| O=C(Oc1ccc(CCO[C@@H]2O[C@H](CO)[C@@H](O)[C@H](O)[C@H]2O)cc1)c1c(Cl)cccc1Cl | inactive | – |
| O=C(Oc1ccc(CCO[C@@H]2O[C@H](CO)[C@@H](O)[C@H](O)[C@H]2O)cc1)c1ccccc1 | Active | logP at 24 h ([2]; n-octanol/saturated water): 1.44; inhibition [3]: Active; Ki [4]: 41 nM; Activity [5]: Dose-dependent effect; IC50 [6]: 80 nM; EC50 [7]: 38 nM; Emax [8]: 73.6%; inhibition [9]: Active; Activity [10]: Active; Emax [11]: 42%; inhibition [12]: Active; inhibition [13]: Active |
| CC(=O)OC[C@H]1O[C@@H](OCCc2ccc(O)cc2)[C@H](O)[C@@H](OC(C)=O)[C@@H]1O | inactive | – |
| CCCc1ccc(C(=O)Oc2ccc(CCO[C@@H]3O[C@H](CO)[C@@H](O)[C@H](O)[C@H]3O)cc2)cc1 | Active | – |
| O=C(/C=C/c1ccccc1)Oc1ccc(CCO[C@@H]2O[C@H](CO)[C@@H](O)[C@H](O)[C@H]2O)cc1 | Active | – |
| O=C(Oc1ccc(CCO[C@@H]2O[C@H](CO)[C@@H](O)[C@H](O)[C@H]2O)cc1)C1CCCCC1 | Active | – |
| O=C(Oc1ccc(CCO[C@@H]2O[C@H](CO)[C@@H](O)[C@H](O)[C@H]2O)cc1)c1cccc(F)c1 | Active | – |
| OC[C@H]1O[C@H](OCCc2ccc(O)cc2)[C@H](O)[C@@H](O)[C@@H]1O | inactive | – |
| O=C(Oc1ccc(CCO[C@@H]2O[C@H](CO)[C@@H](O)[C@H](O)[C@H]2O)cc1)c1ccc2ccccc2c1 | inactive | – |
| O=C(OC[C@H]1O[C@@H](OCCc2ccc(O)cc2)[C@H](O)[C@@H](O)[C@@H]1O)c1ccccc1 | inactive | – |
| O=C(Oc1ccc(CCO[C@@H]2O[C@H](CO)[C@@H](O)[C@H](O)[C@H]2O)cc1)c1ccc(Cl)c(Cl)c1 | inactive | – |
| O=C(Oc1ccc(CCO[C@@H]2O[C@H](CO)[C@@H](O)[C@H](O)[C@H]2O)cc1)c1ccc(CCl)cc1 | inactive | – |
| Cc1ccccc1C(=O)Oc1ccc(CCO[C@@H]2O[C@H](CO)[C@@H](O)[C@H](O)[C@H]2O)cc1 | Active | – |
| C/C=C/C(=O)Oc1ccc(CCO[C@@H]2O[C@H](CO)[C@@H](O)[C@H](O)[C@H]2O)cc1 | Active | – |
| O=C(Oc1ccc(CCO[C@@H]2O[C@H](CO)[C@@H](O)[C@H](O)[C@H]2O)cc1)c1ccc(C(F)(F)F)cc1 | Active | – |
| C=CC(=O)Oc1ccc(CCO[C@@H]2O[C@H](CO)[C@@H](O)[C@H](O)[C@H]2O)cc1 | Active | – |
| CC(=O)OC[C@H]1O[C@@H](OCCc2ccc(O)cc2)[C@H](O)[C@@H](O)[C@@H]1O | inactive | – |
| COc1ccc(C(=O)Oc2ccc(CCO[C@@H]3O[C@H](CO)[C@@H](O)[C@H](O)[C@H]3O)cc2)cc1 | Active | – |
| OC[C@H]1O[C@@H](OCCc2ccc(O)cc2)[C@H](O)[C@@H](O)[C@@H]1O [SALIDROSIDE] | Active | logP ([2]; octanol/water, 24 h): -0.89; Ki [4]: 920 nM; IC50 [6]: 810 nM; EC50 [7]: 300 nM; Emax [8]: 52%; Emax [11]: 27% |
| CC(=O)Oc1ccc(CCO[C@@H]2O[C@H](CO)[C@@H](O)[C@H](O)[C@H]2O)cc1 | Active | – |
| O=C(Oc1ccc(CCO[C@@H]2O[C@H](CO)[C@@H](O)[C@H](O)[C@H]2O)cc1)c1cccc(CCl)c1 | inactive | – |
| CCc1ccc(C(=O)Oc2ccc(CCO[C@@H]3O[C@H](CO)[C@@H](O)[C@H](O)[C@H]3O)cc2)cc1 | Active | – |
| O=C(Oc1ccc(CCO[C@@H]2O[C@H](CO)[C@@H](O)[C@H](O)[C@H]2O)cc1)c1cccc(Cl)c1 | inactive | – |
